Columns and labels:
[1] = Accelerated stability of Compound 1 tablets; oxidative degradation by-products by RPLC; assay type: physicochemical; details: addition of ferrous ion source to the formulation, six weeks
Procedure: Compound 1 was formulated with, inter alia, excipients comprising about 0.01% by weight of ammonium ferrous sulfate hexahydrate into solid binary pharmaceutical formulations as follows. A solution of 350 mg of ferrous ammonium sulfate hexahydrate, dissolved in 100 ml of pure water, was added to 500 g of microcrystalline cellulose (Avicel®; FMC; Philadelphia, Pa.) and the mixture was mixed thoroughly for about ten minutes. The mixture was then dried in an Aeromatic fluid-bed dryer (Niro Inc.; Columbia, Md.) at an inlet temperature of 65° C. The dried Avicel® excipient so prepared comprising the ferrous ion source was milled through a Mini-Comil 193 (Quadro Engineering; Waterloo, Ontario, Canada) with a stainless steel screen. This identical procedure was employed to prepare excipients comprising lactose and the ferrous ion source. A pre-determined amount of Compound 1, the dried Avicel® or lactose excipient comprising the ferrous ion source, and crospovidone (BASF Corp.; Mount Olive, N.J.) were added to a stainless steel V-blender and blended for about 20 minutes. Magnesium stearate was then added and the resulting mixture was blended for an additional five minutes. […]

[2] = Accelerated stability of Compound 2 formulations; N-oxide degradation product by RPLC; assay type: physicochemical; details: addition of ferrous ion source to the formulations, six weeks
Procedure: Compound 2 was similarly formulated with, inter alia, excipients comprising about 0.01% of ferrous ammonium sulfate hexahydrate into solid binary pharmaceutical formulations. The excipients further included microcrystalline cellulose (Avicel®), lactose, or silicified microcrystalline cellulose (Prosolv®; Penwest Pharmaceuticals; Patterson, N.Y.).
The formulations so prepared were then stored under accelerated stability conditions, i.e. at 40° C. at 75% relative humidity and 50° C. at 20% relative humidity for six weeks. Reversed-phase ion pair liquid chromatography (RPLC) was used to separate Compound 2 from its N-oxide oxidative degradation product. RPLC was performed utilizing a Waters Symmetry C18 column (Waters Instrument Co.; Milford, Mass.) 15 cm length×3.9 mm I.D. at a temperature of 40° C. using a mobile phase of buffer (20 mM KH2PO4 (pH adjusted to 3.0 with phosphoric acid, with 0.1% octanesulfonic acid): acetonitrile (60:40 v/v), a flow rate of 1.0 mL/min., and an injection volume of 10 μL at a run time of 35 minutes. [drawing 2]

Row | formation of M+16 and M+32 oxidative degradation by-products on addition of the ferrous ion source [1] | formation of N-oxide oxidative degradation by-product on addition of the ferrous ion source [2] | SMILES
1 | inhibited significantly |  | COc1ccc(C(C)C)cc1CN[C@H]1C2CCN(CC2)[C@H]1C(c1ccccc1)c1ccccc1 [Compound 1, (2S,3S)-N-(5-isopropyl-2-methoxyphenyl)methyl-2-diphenylmethyl-1-azabicyclo[2.2.2]octan-3-amine]
2 |  | inhibited significantly | Oc1ccc2c(c1)CC[C@H](c1ccccc1)[C@@H]2c1ccc(OCCN2CCCC2)cc1 (relative stereo) [Compound 2, cis-6-phenyl-5-[4-(2-pyrrolidin-1-yl-ethoxy)-phenyl]-5,6,7,8-tetrahydronaphthalen-2-ol]
